{"source": "patent US20260216218A1", "about": "“CANNABINOID COMPOSITIONS, AND USES THEREOF IN TREATMENT OF NEURODEGENERATIVE DISEASES OR DISORDERS AND CANCERS” (Biopharmaceutical Research Company, priority 2023, published 2026)", "system": "BR5270 transgenic Caenorhabditis elegans strain", "assay": "Survival (lifespan) in the preclinical Tau C. elegans model", "format": "in vivo", "conditions": "for Survival of C. elegans: 40 μM; for % Alive: BR5270, 40 μM", "protocol": "Many neurodegenerative diseases and conditions associated with neuronal insult are characterized by intracellular aggregates of the microtubule associated protein Tau. […] Due to the significant impact on lifespan and locomotion defect produced by this model, time/cost-effective and high throughput acquisition of data, the C. elegans model of tauopathy serves as an advantageous screening tool for the discovery of novel modulators of neurodegeneration.\nCannabinoid botanical drug substances (20 μM, 40 μM, 80 μM) were prepared in accordance with the protocol described in Example 1 above. The exemplary cannabinoid botanical drug substance used in the study of this example includes CBD, CBG and THC present as the major components in a ratio of 50:20:1.\nThe effect of the two different complex botanical mixtures described above were compared to the comparative control, cannabidiol (40 μM) and a no treatment negative control in the BR5270 transgenic strain. Additional no-treatment negative control and healthspan extension positive control (cannabidiol 40 μM) in wild-type arms served as added comparators. All examinations were performed in triplicate. The impact of three doses of each compound on animal survival and activity levels were examined on days 4, 8, 12, and 16 of animal life. These time points represent the first day of adulthood, early-, mid-, and late-life periods in the C. elegans lifespan."}
{"smiles": "C=C(C)[C@@H]1CCC(C)=C[C@H]1c1c(O)cc(CCCCC)cc1O", "note": "[CBD, cannabidiol]", "values": [{"measurement": "Survival of C. elegans", "setting": "Day 12 (Table 1b summary)", "value": 39}, {"measurement": "Survival of C. elegans", "setting": "Day 16 (Table 1b summary)", "value": 10}, {"measurement": "% Alive", "setting": "day 4 of animal life", "value": 100, "unit": "%"}, {"measurement": "% Alive", "setting": "day 8 of animal life", "value": 73.17, "unit": "%"}, {"measurement": "% Alive", "setting": "day 12 of animal life", "value": 39.39, "unit": "%"}, {"measurement": "% Alive", "setting": "day 16 of animal life", "value": 9.738, "unit": "%"}]}
